Experimental data from patent US20230286973A1, “PROTEIN SECRETION INHIBITORS” (KEZAR LIFE SCIENCES, priority 2020, published 2023).

Experiments:
[1] = system: PD1-ss+10aa/Gaussia Luciferase; assay: Dox-Induced PD1-ss-Gluc Assay; format: cell-based; details: 24 hr Dox induction; 293FRT/TO cells; read-out: 24 hr Dox Inducible PD1ssGluc 293FRT/TO: Mean IC50
Procedure, shortened: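 Gaussia luciferase fused downstream of the PD1 signal peptide plus 10 residues was expressed on doxycycline induction in stably transfected Flp-In 293 T-REx cells. Compounds were added with doxycycline and incubated at 37 °C, 5% CO2.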

[2] = system: TNFα-FL/Gaussia Luciferase; assay: Dox Induced TNFα-FL-Gluc Assay; format: cell-based; details: for IC50: 24 hr Dox induction, 293FRT/TO cells, read-out: 24 hr Dox Inducible TNFaFLGluc 293FRT/TO: Mean IC50; for 24 hr Dox Inducible TNFaFLGluc 293FRT/TO: TNF/PD1: ratio of TNFaFLGluc IC50 to PD1ssGluc IC50
Procedure, shortened: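 Hygromycin/blasticidin-selected Flp-In 293 T-REx cells, TNFα-FL/Gaussia luciferase fusion under T-REx control; overnight plating, then compound in DMSO/media with doxycycline at 37 °C, 5% CO2; stereo-undefined structures tested as mixtures.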

[3] = system: HER3-ss+4aa/Gaussia Luciferase; assay: Dox-Induced Her3-ss-Gluc Assay; format: cell-based; details: 24 hr Dox induction; 293FRT/TO cells; read-out: 24 hr Dox Inducible Her3(ss + 4)Gluc 293FRT/TO: Mean IC50
Procedure, shortened: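 Doxycycline-inducible HER3 signal sequence+4aa/Gaussia luciferase construct, stably integrated in Flp-In 293 T-REx cells; compound dilutions applied with doxycycline at 37° C., 5% CO2.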

[4] = system: IL-2-FL/Gaussia Luciferase; assay: Dox Induced IL2-FL-Gluc Assay; format: cell-based; details: for IC50: 24 hr Dox induction, 293FRT/TO cells, read-out: 24 hr Dox Inducible IL2FLGluc 293FRT/TO: Mean IC50; for 24 hr Dox Inducible IL2FLGluc 293FRT/TO: IL2/PD1: ratio of IL2FLGluc IC50 to PD1ssGluc IC50
Procedure, shortened: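 A hygromycin- and blasticidin-resistant 293 T-REx clone carrying inducible IL-2–Gaussia luciferase (full-length IL-2, residues 1-153) serves as the cell system. After overnight plating, the cells get test compounds together with doxycycline in DMSO/media and are incubated at 37° C, 5% CO2.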

[5] = system: multiple myeloma cell line NCI-H929; assay: H929 Cell Viability Assay; format: cell-based, human; details: Homo sapiens, NCI-H929, 48 h, NCI-H929 cells, Celltiter-Glo
Procedure, shortened: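 A 48-hour compound treatment of cells in 10% FBS RPMI medium was followed by luciferase-based viability quantification.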

[6] = system: multiple myeloma cell line U266B1; assay: U266 Cell Viability Assay; format: cell-based, human; details: Homo sapiens, U-266, 48 h, U266B1 cells, Celltiter-Glo
Procedure, shortened: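 After growth in serum-supplemented RPMI 1640, cells received serially diluted compound in DMSO/media and were kept 48 hours before a CellTiter-Glo luminescence readout.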

[7] = Liver Microsome Stability Assay (rat); details: rat liver microsomes, with NADPH, 1.0 uM compound
Protocol: (§1) Stability of a compound was assessed in the presence of liver microsomes from various sources—mouse, rat, monkey and human liver microsomes. 1.0 uM compound, 0.4% DMSO in 0.1 M Potassium Phosphate with 1.0 mg/mL liver microsomes, were incubated at 37° C. with or without 1 mM NADPH. The samples were quenched at 0, and 30 minutes.

[8] = Liver Microsome Stability Assay (mouse); details: mouse liver microsomes, with NADPH, 1.0 uM compound
Protocol: as §1

[9] = Liver Microsome Stability Assay (human); details: human liver microsomes, with NADPH, 1.0 uM compound
Protocol: as §1

[10] = Liver Microsome Stability Assay (monkey); details: monkey liver microsomes, with NADPH, 1.0 uM compound
Protocol: as §1

Row | SMILES | IC50 [1] [µM] | IC50 [2] [µM] | IC50 [3] [µM] | IC50 [4] [µM] | EC50 [5] [µM] | EC50 [6] [µM] | Liver Microsome Stability (Multiple Species): Rat - % Remaining after 30 min w/NADPH [7] [%] | Liver Microsome Stability (Multiple Species): Mouse - % Remaining after 30 min w/NADPH [8] [%] | Liver Microsome Stability (Multiple Species): Human - % Remaining after 30 min w/NADPH [9] [%] | Liver Microsome Stability (Multiple Species): Monkey - % Remaining after 30 min w/NADPH [10] [%] | 24 hr Dox Inducible TNFaFLGluc 293FRT/TO: TNF/PD1 [2] | 24 hr Dox Inducible IL2FLGluc 293FRT/TO: IL2/PD1 [4]
1 | O=C(Nc1nc(/C=C/c2coc(C3CCCCC3)n2)cs1)c1cccn1Cc1ccncc1 [Compound B39, (E)-N-(4-(2-(2-cyclohexyloxazol-4-yl)vinyl)thiazol-2-yl)-1-(pyridin-4-ylmethyl)-1H-pyrrole-2-carboxamide] | 0.268 | 6.46 | 0.945 | 1.96 | 10.2 | 13.1 | 5.38 | 16.5 | 0.27 | 0.47 | 24.1 | 7.3
2 | O=C(Nc1nc(/C=C/c2coc(C3CC3)n2)cs1)c1cccn1Cc1ccncc1 [Compound B40, (E)-N-(4-(2-(2-cyclopropyloxazol-4-yl)vinyl)thiazol-2-yl)-1-(pyridin-4-ylmethyl)-1H-pyrrole-2-carboxamide] | 0.221 | > 25 | 1.68 | 4.57 | > 25 | > 25 | 0.73 | 5.73 | 0.48 | 2.25 | >113 | 21
3 | Cc1coc(/C=C/c2csc(NC(=O)c3cccn3Cc3ccncc3)n2)n1 [Compound B41, (E)-N-(4-(2-(4-methyloxazol-2-yl)vinyl)thiazol-2-yl)-1-(pyridin-4-ylmethyl)-1H-pyrrole-2-carboxamide] | 0.398 | > 25 | 3.63 | > 16.6 | > 25 | > 25 | 0.15 | 0.36 | 0.18 | 0.44 | >62.8 | >42
4 | CC(C)n1cnc(/C=C/c2csc(NC(=O)c3cccn3Cc3ccnc(F)c3)n2)c1 [Compound B45, (E)-1-((2-fluoropyridin-4-yl)methyl)-N-(4-(2-(1-isopropyl-1H-imidazol-4-yl)vinyl)thiazol-2-yl)-1H-pyrrole-2-carboxamide] | 0.0421 | > 25 | > 25 | > 22.6 | 19.9 | > 24.2 | 16.3 | 23.2 | 0.1 | 0.19 | >593 | >540
5 | Cc1ocnc1/C=C/c1csc(NC(=O)c2cccn2Cc2ccnc(F)c2)n1 [Compound B47, (E)-1-((2-fluoropyridin-4-yl)methyl)-N-(4-(2-(5-methyloxazol-4-yl)vinyl)thiazol-2-yl)-1H-pyrrole-2-carboxamide] | 0.0415 | 18.8 | 5.75 | 14.5 | > 25 | > 25 | 0.41 | 30.8 | 2.81 | 1.45 | 454 | 350

Continued by falling IC50 [1], values first:

Row | IC50 [1] [µM] | IC50 [2] [µM] | IC50 [3] [µM] | IC50 [4] [µM] | EC50 [5] [µM] | EC50 [6] [µM] | Liver Microsome Stability (Multiple Species): Rat - % Remaining after 30 min w/NADPH [7] [%] | Liver Microsome Stability (Multiple Species): Mouse - % Remaining after 30 min w/NADPH [8] [%] | Liver Microsome Stability (Multiple Species): Human - % Remaining after 30 min w/NADPH [9] [%] | Liver Microsome Stability (Multiple Species): Monkey - % Remaining after 30 min w/NADPH [10] [%] | SMILES | 24 hr Dox Inducible TNFaFLGluc 293FRT/TO: TNF/PD1 [2] | 24 hr Dox Inducible IL2FLGluc 293FRT/TO: IL2/PD1 [4]
6 | 6.68 | > 25 | > 25 | > 25 | > 25 | > 25 | 8.69 | 26.5 | 6.13 | 11.3 | O=C(Nc1nc(/C=C/c2c[nH]cn2)cs1)c1cccn1Cc1ccncc1 [Compound B42, (E)-N-(4-(2-(1H-imidazol-4-yl)vinyl)thiazol-2-yl)-1-(pyridin-4-ylmethyl)-1H-pyrrole-2-carboxamide] | >3.74 | >3.7
7 | 3.36 | > 25 | > 25 | > 25 | > 25 | > 25 | 1.3 | 4.87 | 0.24 | 0.36 | O=C(Nc1nc(/C=C/c2ccncn2)cs1)c1cccn1Cc1ccncc1 [Compound B44, (E)-1-(pyridin-4-ylmethyl)-N-(4-(2-(pyrimidin-4-yl)vinyl)thiazol-2-yl)-1H-pyrrole-2-carboxamide] | >7.44 | >7.4
8 | 0.264 | > 25 | > 25 | > 25 | > 25 | > 25 | 1.88 | 1.19 | 1.83 | 0.92 | O=C(Nc1nc(/C=C/c2cnccn2)cs1)c1cccn1Cc1ccncc1 [Compound B43, (E)-N-(4-(2-(pyrazin-2-yl)vinyl)thiazol-2-yl)-1-(pyridin-4-ylmethyl)-1H-pyrrole-2-carboxamide] | >94.5 | >95
9 | 0.192 | 7.05 | 1.38 | 5.59 | 7.56 | 8.93 | 1.03 | 6.78 | 0.54 | 0.69 | CC(C)c1nc(/C=C/c2csc(NC(=O)c3cccn3Cc3ccncc3)n2)co1 [Compound B38, (E)-N-(4-(2-(2-isopropyloxazol-4-yl)vinyl)thiazol-2-yl)-1-(pyridin-4-ylmethyl)-1H-pyrrole-2-carboxamide] | 36.6 | 29
10 | 0.0683 | > 25 | > 25 | > 25 | > 25 | > 25 | 6.38 | 2.42 | 0.13 | 0.13 | CC(C)n1cnc(/C=C/c2csc(NC(=O)c3cccn3Cc3ccncc3)n2)c1 [Compound B37, (E)-N-(4-(2-(1-isopropyl-1H-imidazol-4-yl)vinyl)thiazol-2-yl)-1-(pyridin-4-ylmethyl)-1H-pyrrole-2-carboxamide] | >366 | >370
